Test results published in patent US20130209543A1, “ENHANCED TREATMENT REGIMENS USING MTOR INHIBITORS” (Intellikine LLC, priority 2011, published 2013).

Assay: Phase I clinical trial: safety, related treatment-emergent adverse events, patients n (%)
Assay type: in vivo
Description: Safety, maximum tolerated dose (MTD), pharmacokinetics (PK) and preliminary antitumor activity were evaluated.
Pharmacodynamic (PD) endpoints were evaluated in surrogate (peripheral blood cells [PBCs], skin) and tumor tissues for the phosphorylation of TORC1-dependent markers (4EBP1/S6), and TORC2-dependent markers (AKT/PRAS40).

Which results are given for `CC(C)n1nc(-c2ccc3oc(N)nc3c2)c2c(N)ncnc21` [compound A]?
Asthenia (6 mg/3W, N = 3): 0 (0%); Asthenia (second line) (6 mg/3W, N = 3): 0 (0%); Catheter site inflammation (6 mg/3W, N = 3): 0 (0%); Catheter site pain (6 mg/3W, N = 3): 0 (0%); Decreased appetite (6 mg/3W, N = 3): 0 (0%); Diarrhoea (6 mg/3W, N = 3): 0 (0%); Dry skin (6 mg/3W, N = 3): 0 (0%); Dysgeusia (6 mg/3W, N = 3): 0 (0%); Dyspnoea (6 mg/3W, N = 3): 0 (0%); Fatigue (6 mg/3W, N = 3): 0 (0%); Headache (6 mg/3W, N = 3): 0 (0%); Hypercholesterolaemia (6 mg/3W, N = 3): 0 (0%); Hypertransaminasaemia (6 mg/3W, N = 3): 0 (0%); Hypertriglyceridaemia (6 mg/3W, N = 3): 0 (0%); Hypomagnesaemia (6 mg/3W, N = 3): 0 (0%); Hypotension (6 mg/3W, N = 3): 0 (0%); Low fever (6 mg/3W, N = 3): 0 (0%); Lymphopenia (6 mg/3W, N = 3): 0 (0%); Palmar-plantar erythrodysaesthesia syndrome (6 mg/3W, N = 3): 0 (0%); Patients Reporting at Least One Related TEAE (6 mg/3W, N = 3): 3 (100%); Pyrexia (6 mg/3W, N = 3): 0 (0%); Rash macular (6 mg/3W, N = 3): 0 (0%); Urinary tract infection (6 mg/3W, N = 3): 0 (0%); Nausea (7 mg/5W, N = 3): 0 (0%); Nausea (second line) (7 mg/5W, N = 3): 1 (33%); Urine tract infection (7 mg/5W, N = 3): 0 (0%); Vomiting (7 mg/5W, N = 3): 0 (0%); Patients Reporting at Least One Related TEAE (7 mg/week, N = 3): 3 (100%); Alanine aminotransferase increased (9 mg/3W, N = 5): 0 (0%); Asthenia (9 mg/3W, N = 5): 1 (20%); Asthenia (second line) (9 mg/3W, N = 5): 0 (0%); Catheter site inflammation (9 mg/3W, N = 5): 0 (0%); Catheter site pain (9 mg/3W, N = 5): 0 (0%); Decreased appetite (9 mg/3W, N = 5): 0 (0%); Diarrhoea (9 mg/3W, N = 5): 1 (20%); Dry skin (9 mg/3W, N = 5): 1 (20%); Dysgeusia (9 mg/3W, N = 5): 0 (0%); Dyspnoea (9 mg/3W, N = 5): 1 (20%); Fatigue (9 mg/3W, N = 5): 0 (0%); Headache (9 mg/3W, N = 5): 0 (0%); Hyperbilirubinaemia (9 mg/3W, N = 5): 0 (0%); Hypercholesterolaemia (9 mg/3W, N = 5): 1 (20%); Hyperglycaemia (9 mg/3W, N = 5): 1 (20%); Hypertransaminasaemia (9 mg/3W, N = 5): 1 (20%); Hypertriglyceridaemia (9 mg/3W, N = 5): 1 (20%); Hypomagnesaemia (9 mg/3W, N = 5): 1 (20%); Hypotension (9 mg/3W, N = 5): 1 (20%); Low fever (9 mg/3W, N = 5): 0 (0%); Lymphopenia (9 mg/3W, N = 5): 1 (20%); Mucosal inflammation (9 mg/3W, N = 5): 2 (40%); Nausea (9 mg/3W, N = 5): 2 (40%); Palmar-plantar erythrodysaesthesia syndrome (9 mg/3W, N = 5): 1 (20%); Patients Reporting at Least One Related TEAE (9 mg/3W, N = 5): 4 (80%); Platelet count decreased (9 mg/3W, N = 5): 0 (0%); Pruritus (9 mg/3W, N = 5): 2 (40%); Pyrexia (9 mg/3W, N = 5): 0 (0%); Rash (9 mg/3W, N = 5): 3 (60%); Rash macular (9 mg/3W, N = 5): 0 (0%); Urinary tract infection (9 mg/3W, N = 5): 1 (20%); Vomiting (9 mg/3W, N = 5): 2 (40%); Diarrhoea (10 mg/5W, N = 3): 0 (0%); Nausea (second line) (10 mg/5W, N = 3): 0 (0%); Rash (10 mg/5W, N = 3): 0 (0%); Mucosal inflammation (10 mg/week, N = 3): 0 (0%); Alanine aminotransferase increased (12 mg/3W, N = 3): 0 (0%); Asthenia (second line) (12 mg/3W, N = 3): 0 (0%); Diarrhoea (12 mg/3W, N = 3): 0 (0%); Dry skin (12 mg/3W, N = 3): 0 (0%); Dyspnoea (12 mg/3W, N = 3): 0 (0%); Fatigue (12 mg/3W, N = 3): 0 (0%); Headache (12 mg/3W, N = 3): 0 (0%); Hyperbilirubinaemia (12 mg/3W, N = 3): 0 (0%); Hypercholesterolaemia (12 mg/3W, N = 3): 0 (0%); Hypertransaminasaemia (12 mg/3W, N = 3): 0 (0%); Hypertriglyceridaemia (12 mg/3W, N = 3): 0 (0%); Hypomagnesaemia (12 mg/3W, N = 3): 0 (0%); Hypotension (12 mg/3W, N = 3): 0 (0%); Low fever (12 mg/3W, N = 3): 0 (0%); Lymphopenia (12 mg/3W, N = 3): 0 (0%); Palmar-plantar erythrodysaesthesia syndrome (12 mg/3W, N = 3): 0 (0%); Platelet count decreased (12 mg/3W, N = 3): 0 (0%); Pyrexia (12 mg/3W, N = 3): 0 (0%); Rash (12 mg/3W, N = 3): 0 (0%); Urinary tract infection (12 mg/3W, N = 3): 0 (0%); Vomiting (12 mg/3W, N = 3): 0 (0%); Patients Reporting at Least One Related TEAE (15 mg/week, N = 3): 3 (100%); Alanine aminotransferase increased (16 mg/3W, N = 3): 0 (0%); Asthenia (second line) (16 mg/3W, N = 3): 1 (33%); Catheter site inflammation (16 mg/3W, N = 3): 0 (0%); Catheter site pain (16 mg/3W, N = 3): 0 (0%); Decreased appetite (16 mg/3W, N = 3): 0 (0%); Dry skin (16 mg/3W, N = 3): 0 (0%); Dysgeusia (16 mg/3W, N = 3): 0 (0%); Dyspnoea (16 mg/3W, N = 3): 0 (0%); Hyperbilirubinaemia (16 mg/3W, N = 3): 0 (0%); Hypercholesterolaemia (16 mg/3W, N = 3): 0 (0%); Hypertransaminasaemia (16 mg/3W, N = 3): 0 (0%); Hypertriglyceridaemia (16 mg/3W, N = 3): 0 (0%); Hypomagnesaemia (16 mg/3W, N = 3): 0 (0%); Hypotension (16 mg/3W, N = 3): 0 (0%); Lymphopenia (16 mg/3W, N = 3): 0 (0%); Nausea (16 mg/3W, N = 3): 0 (0%); Palmar-plantar erythrodysaesthesia syndrome (16 mg/3W, N = 3): 0 (0%); Platelet count decreased (16 mg/3W, N = 3): 0 (0%); Pruritus (16 mg/3W, N = 3): 0 (0%); Rash (16 mg/3W, N = 3): 0 (0%); Rash macular (16 mg/3W, N = 3): 0 (0%); Urinary tract infection (16 mg/3W, N = 3): 0 (0%); Vomiting (16 mg/3W, N = 3): 0 (0%); Dose limiting toxicity (20 mg Q3D): Mucositis; Nausea (30 mg/week, N = 3): 3 (100%); Patients Reporting at Least One Related TEAE (30 mg/week, N = 3): 3 (100%); Dose limiting toxicity (40 mg QW): Asthenia; Dose limiting toxicities (40 mg QW, 20 mg QD×3d QW and 13 mg QD×5d QW cohorts): Grade (G) 3 asthenia and G3 mucositis; Catheter site inflammation (Total QD Dosing, N = 25): 0 (0%); Catheter site pain (Total QD Dosing, N = 25): 0 (0%); Diarrhea (Total QD Dosing, N = 25): 0 (0%); Fatigue (Total QD Dosing, N = 25): 0 (0%); Headache (Total QD Dosing, N = 25): 0 (0%); Hyperbilirubinaemia (Total QD Dosing, N = 25): 0 (0%); Hypertransaminasaemia (Total QD Dosing, N = 25): 0 (0%); Hypertriglyceridaemia (Total QD Dosing, N = 25): 0 (0%); Hypomagnesaemia (Total QD Dosing, N = 25): 0 (0%); Hypotension (Total QD Dosing, N = 25): 0 (0%); Low fever (Total QD Dosing, N = 25): 0 (0%); Malaise (Total QD Dosing, N = 25): 0 (0%); Nausea (Total QD Dosing, N = 25): 0 (0%); Oral discomfort (Total QD Dosing, N = 25): 0 (0%); Palmar-plantar erythrodysaesthesia syndrome (Total QD Dosing, N = 25): 0 (0%); Platelet count decreased (Total QD Dosing, N = 25): 0 (0%); Pyrexia (Total QD Dosing, N = 25): 0 (0%); Rash (Total QD Dosing, N = 25): 0 (0%); Rash macular (Total QD Dosing, N = 25): 0 (0%); Urinary tract infection (Total QD Dosing, N = 25): 0 (0%); Urine tract infection (Total QD Dosing, N = 25): 0 (0%); Vomiting (Total QD Dosing, N = 25): 0 (0%); Weakness (Total QD Dosing, N = 25): 0 (0%); Asthenia (second line) (Total QDx3d QW, N = 14): 1 (7%); Coagulopathy (Total QDx3d QW, N = 14): 0 (0%); Confusional state (Total QDx3d QW, N = 14): 0 (0%); Cough (Total QDx3d QW, N = 14): 0 (0%); Diarrhea (Total QDx3d QW, N = 14): 0 (0%); Dizziness (Total QDx3d QW, N = 14): 0 (0%); Dyspnoea exertional (Total QDx3d QW, N = 14): 0 (0%); Eye infection (Total QDx3d QW, N = 14): 0 (0%)
